The record followed here is article PMC11748689, “Pharmacological and structural understanding of the Trypanosoma cruzi proteasome provides key insights for developing site-specific inhibitors” (The Journal of Biological Chemistry, 2024).

Test [1] concerns the target native T. cruzi proteasome (caspase-like activity, β1) (Trypanosoma cruzi, UniProt V5BHX1). Put plainly: Caspase-like activity assay (Proteasome-Glo), native T. cruzi proteasome. The class given is biochemical. As to conditions: mean ± SD, N = 3; read-out: pIC50, Caspase Assay, Native (converted). Here is the method: (§1) Chymotrypsin-, trypsin-, and caspase-like activity assays were performed using a commercially available Proteasome-Glo 3-substrate system assay kit (catalog number G8532) (Promega Corporation) according to the manufacturers protocols and as previously described ([24]).
(§2) Prior to running assays, Proteasome-Glo buffer was used to reconstitute the luciferin detection reagent (containing a recombinant thermostable luciferase enzyme). The resuspended luciferin detection reagent was then mixed with Proteasome-Glo chymotrypsin-, trypsin- or caspase-like substrates (either 40 μM suc-Leu-Leu-Val-Tyr-aminoluciferin, 30 μM Z-Leu-Arg-Arg-aminoluciferin (Z is benzyloxycarbonyl) or 40 μM Z-Nle-Pro-Nle-Asp-aminoluciferin respectively (these concentrations represent 2x final assay concentrations)). These substrate mixtures were allowed to incubate at room temperature for 60 min prior to use to allow the removal of any contaminating free aminoluciferin.
(§3) When proteasome inhibitors were to be screened in the chymotrypsin, trypsin, and caspase assays, test compounds were dispensed into assay wells using an ECHO 550 acoustic dispenser (Labcyte) (final DMSO concentration 1%). Compounds were tested in either a 10-point concentration series (30 μM top final assay concentration, 1 in 3 dilution series) or a 12-point concentration series (30 μM top final assay concentration, 1 in 2.5 dilution series).
(§4) Proteasome assays were then performed as described above using Promega Proteasome-Glo 3-substrate system assay kit. […] Diluted proteasome (4 μl) was added to assay plates using an electronic multichannel pipette (Integra Biosciences Ltd) and the proteasome incubated with compound for 60 min at room temperature.
(§5) Following the 60 min incubation of proteasome and compounds, assays were initiated with the addition of 4 μl of a substrate mix (containing substrate and the luciferin detection reagent) using an electronic multichannel pipette. Final assay concentrations of substrates used were either 20 μM Suc-Leu-Leu-Val-Tyr-aminoluciferin, 15 μM Z-Leu-Arg-Arg-aminoluciferin, or 20 μM Z-Nle-Pro-Nle-Asp-aminoluciferin for chymotrypsin-, trypsin-, or caspase-like activity, respectively. Following a further 60 min assay incubation, luminescence was read using an EnVision 2102 Multilabel Reader (PerkinElmer, Inc) with 0.2 s per well reading time.
(§6) All data processing was performed using Microsoft Excel for Microsoft 365 software.
(§7) Nonlinear dose-response curve fitting was carried out using the Microsoft Excel add-in, XLfit (IDBS). Percentage inhibition data were either fitted to a standard 4-parameter logistic fit model (XLfit model 205; Equation 2) or a biphasic model (either XLfit model 300; Equation 3 or a custom biphasic model; Equation 4 (used in cases where the top and/or bottom parameters deviated from 100%/0% inhibition)).(2) y=A+(B−A)/1+(C/x)^D Where A = % inhibition at bottom, B = % inhibition at top, C = IC50, D = slope, x = inhibitor concentration and y = % inhibition.(3) y=(A/(1+10^(C−log(x))∗B))+((100−A)/(1+10^(D−log(x))∗B)) With A = % inhibition at midplateau, B = slope, C = log(IC50^A), D = log(IC50^B)).
(§8) All IC50 data generated were converted to pIC50 using Equation 5.

In test [2] the target is recombinant WT T. cruzi proteasome (trypsin-like activity, β2) (Trypanosoma cruzi, UniProt V5BCU3). The test can be described thus: biochemical. Type of test: biochemical. As to conditions: mean ± SD, N = 3; read-out: pIC50, Trypsin Assay, Wild-type (converted). As to the method:
as §1, §2, §3, §4, §5, §6, §7, §8

Test [3] addresses recombinant WT T. cruzi proteasome (caspase-like activity, β1) (Trypanosoma cruzi, UniProt V5BHX1). Put plainly: Caspase-like activity assay (Proteasome-Glo), recombinant wild-type T. cruzi proteasome. The class given is biochemical. As to the method:
as §1, §2, §3, §4, §5, §6, §7, §8

The target of test [4] is recombinant β4^R mutant T. cruzi proteasome (chymotrypsin-like activity) (Trypanosoma cruzi, UniProt V5BU39+V5C017, F24L/I29M). The test can be described thus: biochemical. The class given is biochemical. As to the method: (§9) Point mutations were created in individual subunits using overlapping PCR from the original templates using Polh and Tn7L primers outside the genes and suitable internal primers to introduce selected mutations. For Δβ1Δβ2, β1 Thr 55, and β2 Thr 67 were both mutated to Ala, the β4^R mutant was produced by mutating Phe 24 and Ile 29 to Leu and Met respectively in β4 subunit.
as §1, §2
(§10) Proteasome assays were carried out using 384-well, white, low-volume plates (catalog number 784904) (Greiner Bio-One) at room temperature (∼23 °C) in 8 μl reaction volumes. When activity checks were to be run in the presence or absence of a fixed concentration of proteasome inhibitor, 80 nL of the inhibitor (at a concentration 100x the required final assay concentration), or 80 nL dimethylsulfoxide (DMSO), were dispensed into assay plates using an Echo 550 acoustic dispenser (Labcyte).
(§11) A 1 in 2 dilution series of the various T. cruzi proteasome samples (native, recombinant WT, β4^R mutant, and Δβ1Δβ2 mutant) were produced in assay buffer (50 mM Tris–HCl, pH 7.5, 10 mM sucrose, 5 mM MgCl2, 1 mM DTT, 2 mM ATP, 150 mM NaCl, 1 mM EDTA, and 0.05 mg/ml bovine serum albumin). Subsequently, 4 μl of the various concentrations of diluted proteasome were added to assay plates using an electronic multichannel pipette (Integra Biosciences Ltd). When kinetic read activity checks were performed (Fig. 2), proteasome final assay concentrations used were 115 μg/ml, 115 μg/ml, and 230 μg/ml native proteasome (in the chymotrypsin, trypsin, and caspase assays, respectively), and 4.1 μg/ml, 3.4 μg/ml, or 1.4 μg/ml recombinant WT proteasome (in the chymotrypsin, trypsin, and caspase assays, respectively). When activity checks were to be run in the presence or absence of a proteasome inhibitor plates containing inhibitor or DMSO control were incubated with the relevant proteasome sample for 60 min at room temperature (this step was not included in activity check experiments where compounds were not used).
(§12) Following the 60 min incubation of proteasome and compound (if required), assays were initiated with the addition of 4 μl of substrate mix (containing substrate and the luciferin detection reagent) using an electronic multichannel pipette. Final assay concentrations of substrates used were either 20 μM Suc-Leu-Leu-Val-Tyr-aminoluciferin, 15 μM Z-Leu-Arg-Arg-aminoluciferin, or 20 μM Z-Nle-Pro-Nle-Asp-aminoluciferin for chymotrypsin-, trypsin- or caspase-like activity respectively.
(§13) Luminescence was read either kinetically or as an endpoint read using an EnVision 2102 Multilabel Reader (PerkinElmer, Inc) with 0.2 s per well reading time. When kinetic assays were run, luminescence was read every 5 min for 90 min. Endpoint assays were run for 60 min before luminescence was read. All data processing and linear fit analyses were performed using Microsoft Excel for Microsoft 365 software (Redmond, Washington; https://www.microsoft.com/).

For test [5], the target named is recombinant Δβ1Δβ2 mutant T. cruzi proteasome (chymotrypsin-like activity) (Trypanosoma cruzi, UniProt V5BU39+V5C017). The test can be described thus: biochemical. Type of test: biochemical. As to the method: as §9, §1, §2, §10, §11, §12, §13
In test [6] the target is native T. cruzi proteasome (trypsin-like activity, β2) (Trypanosoma cruzi, UniProt V5BCU3). The test can be described thus: Trypsin-like activity assay (Proteasome-Glo), native T. cruzi proteasome. The class given is biochemical. The note with it: mean ± SD, N = 3; read-out: pIC50, Trypsin Assay, Native (converted). Here is the method: as §1, §2, §3, §4, §5, §6, §7, §8

The subject of test [7] is intracellular T. cruzi Silvio X10/7 A1 amastigotes. Put plainly: Intracellular T. cruzi assay. Type of test: cell-based. As to conditions: Trypanosoma cruzi; 96 h compound treatment, Vero host cells; given as [mean pEC50, SD, N]; read-out: Mean pEC50 against intracellular T. cruzi parasites (converted). As to the method:
Potency against intracellular T. cruzi Silvio X10/7 A1 amastigotes was determined as described previously ([53]), with a sole modification that the compound treatment duration was 96 h instead of 72 h. Vero host cells were obtained from The European Collection of Authenticated Cell Cultures (cat. number 84113001) and tested for mycoplasma (negative). T. cruzi Silvio X10/7 A1 was obtained from Prof. Alan Fairlamb, and discrete typing unit confirmed by genotyping ([53]).

For test [8], the target named is recombinant WT T. cruzi proteasome (chymotrypsin-like activity, β5) (Trypanosoma cruzi, UniProt V5BU39+V5C017). The test can be described thus: biochemical. Type of test: biochemical. The note with it: for maximum % inhibition plateau, Chymotrypsin Assay, Wild-type: mean ± SD, N = 3 (N = 2 for DDD02091966), (a) mid-point plateau from biphasic curve fits. Here is the method: as §1, §2, §10, §11, §12, §13, §3

Test [9] addresses native T. cruzi proteasome (chymotrypsin-like activity, β5) (Trypanosoma cruzi, UniProt V5BU39+V5C017). Put plainly: Chymotrypsin-like activity assay (Proteasome-Glo), native T. cruzi proteasome. The class given is biochemical. Here is the method: as §1, §2, §3, §4, §5, §6, §7, §8
The target in test [10] is recombinant β4^R mutant T. cruzi proteasome (caspase-like activity) (Trypanosoma cruzi, UniProt V5BHX1). Put plainly: Caspase-like activity assay (Proteasome-Glo), recombinant β4^R mutant T. cruzi proteasome. Type of test: biochemical. As to the method: as §9, §1, §2, §10, §11, §12, §13
In test [11] the target is recombinant β4^R mutant T. cruzi proteasome (trypsin-like activity) (Trypanosoma cruzi, UniProt V5BCU3). Type of test: biochemical. The note with it: mean ± SD, N = 3. As to the method: as §9, §1, §2, §10, §11, §12, §13

Bounds are passed on as bounds.

`O=C(Nc1ccc(F)c(-c2cn3nc(N4CCOCC4)cnc3n2)c1)N1CCCC1` [DDD01012247]: the IC50 in [1] was more than 30200 nM; in [2], more than 30200 nM; in test [3], more than 30200 nM; in test [4], 6920 nM; in test [5], 19.5 nM; in test [6], more than 30200 nM. Besides, the values for the IC50 in test [8], in test [9] and in [10] were 16.2 nM, 12 nM and more than 30200 nM, respectively. Moreover, in test [7], the EC50 was 126 nM. In [8], the “maximum % inhibition plateau, Chymotrypsin Assay, Wild-type” value was determined as 68.9 ± 3.5%. The “pIC50, Trypsin Assay, β4^R mutant” value in test [11] is given as less than 4.52.

Turning to `CNC(=O)c1cc(NC(=O)c2ccc(=O)n(Cc3ccc(OC)cc3)n2)ccc1F` [DDD02097487], the IC50 in [1] is more than 30200 nM; in test [2] it was more than 30200 nM; in [3], more than 30200 nM; in [4], more than 30200 nM; in test [5], 155 nM; in test [6] it was more than 30200 nM. Further, the IC50 in test [8] was 178 nM; in test [9], 120 nM; in test [10], more than 30200 nM. For the same compound, the “extent of inhibition in chymotrypsin dose-response curve, Δβ1Δβ2 mutant” value in [5] (top of dose-response curve) is “unable to fully inhibit”. In addition, the EC50 in test [7] was 794 nM. Besides, in test [8], the “maximum % inhibition plateau, Chymotrypsin Assay, Wild-type” value is 48.2 ± 3.6%. For the same compound, the “pIC50, Trypsin Assay, β4^R mutant” value in [11] is listed as less than 4.52.
